# Where a name gives a salt, the structure may show the parent alone.
# How the values were obtained:
# [1] = biological target: T1, glycine site of the NMDA receptor (Rattus norvegicus, UniProt P35439); test: Displacement of [3H]-L-689,560 from rat brain membranes (NMDA glycine site binding); settings: [3H]-L-689,560 method, tris-acetate buffer pH 7.4, 90 minutes, read-out: IC50 (nM), binding affinity for the glycine site of the NMDA receptor
# T1 construct: from tissue; host or cells: rat brain membranes
# Experimental: J. Pharm., 104, 74 (1991).
# The binding affinities of a selection of the compounds of the Examples for the glycine site of the NMDA receptor were measured using the [^3H]-L-689,560 method described on page 20 of the description.
Structure (SMILES),melting point,IC50 [1]
"O=C(O)Cn1nnnc1-c1c(Cl)c(Cl)cc2[nH]c(=O)c(=O)[nH]c12 (hydrate or solvate) [Example 8, 6,7-dichloro-5-(1-carboxymethyltetrazol-5-yl)-2,3(1H,4H)-quinoxalinedione]",286 to 287 °C,
Cn1ncnc1-c1c(Cl)c(Cl)cc2[nH]c(=O)c(=O)[nH]c12 (hydrate or solvate) [Example 20],> 300 °C,
"O=c1[nH]c2cc(Cl)c(Cl)c(-c3ccncc3)c2[nH]c1=O [Example 1, 6,7-Dichloro-5-(4-pyridyl)-2,3(1H,4H)-quinoxalinedione]",> 300 °C,
Cn1ncnc1-c1c(Cl)c(Cl)cc2[nH]c(=O)c(=O)[nH]c12 [Example 20],,19 nM

# More lines, now with the values ahead:
melting point,IC50 [1],Structure (SMILES)
274 to 276 °C,,Cc1nnc(-c2ccccc2)n1-c1c(Cl)c(Cl)cc2[nH]c(=O)c(=O)[nH]c12 (as salt: HCl) (hydrate or solvate) [Example 73]
,4 nM,Cc1nnc(-c2ccccc2)n1-c1c(Cl)c(Cl)cc2[nH]c(=O)c(=O)[nH]c12 [Example 73]
281 to 283 °C,,"COC(=O)Cn1nnnc1-c1c(Cl)c(Cl)cc2[nH]c(=O)c(=O)[nH]c12 [Example 108, 6,7-Dichloro-5-(1-methoxycarbonylmethyltetrazol-5-yl)-2,3(1H,4H)-quinoxalinedione]"
229 to 231 °C,,"COCc1nnc(-c2cccnc2)n1-c1c(Cl)c(C)cc2[nH]c(=O)c(=O)[nH]c12 [Example 109, 6-Chloro-7-methyl-5-[5-methoxymethyl-3-(3-pyridyl)-4H-1,2,4-triazol-4-yl]-2,3(1H,4H)-quinoxalinedione]"
> 300 °C,,"COCc1nnc(-c2cccnc2)n1-c1c(C)c(Cl)cc2[nH]c(=O)c(=O)[nH]c12 [Example 110, 7-Chloro-6-methyl-5-[5-methoxymethyl-3-(3-pyridyl)-4H-1,2,4-triazol-4-yl]-2,3(1H,4H)-quinoxalinedione]"

# Reference: patent US6376490B1, “Quinoxalinediones” (Pfizer Inc, priority 1997, dated 2002)
